Assay results reported in US11918610B2, “Methods for diagnosis and treatment of type 1 diabetes” (priority 2018, dated 2024).
No end group written: not given here.

Experiments:
[1] = test system: non-obese diabetic mice (NOD/ShiLtJ) colonized with E. coli VT-55; format: in vivo; settings: NOD mice gavaged with E. coli VT-55; regimen of each agent as in Table 3; positive control (no therapy) 16, negative controls 24 and 26
Description: For this study non-obese diabetic mice (NOD/ShiLtJ) 8 weeks old (Jackson Laboratory, Bar Harbor, Me., USA) were housed and bred under specific pathogen-free conditions. Mice were maintained in a temperature controlled (22±2° C.) animal facility with a 12 hour light/dark cycle and were allowed free access to food and acidified drinking water. To increase the efficacy of E. coli transfer, all animals were exposed to antibiotic treatment before the transfer of E. coli. Starting at three weeks of age, recipient mice were treated with ampicillin (1 g/L) in the drinking water for the next 4 weeks. The bacterial strains used: E. coli strain VT-55—a wild-type, amyloid-producing strain. E. coli VT-55 bacteria were administered with oropharyngeal gavage to 8 week old female mice at 10^8 CFU, 2 times a week. Acceleration of T1D development was accessed by measuring blood glucose in a manner consistent with diabetes monitoring, using a FreeStyle Lite meter and test strips (Abbott). Blood glucose was evaluated weekly via a tail vein. T1D development was defined as occurring after two consecutive blood glucose measurements of at least 250 mg/dL.
TTR was expressed in E. coli VT-243. The TTR protein was precipitated from the supernatant of a 48 hour culture of E. coli VT-243 after centrifugation (12,000×g, 20 minutes 4° C.) of the lysed cells in the gradient 40-90% ammonium sulfate fraction (1.8-3.6 M). The precipitate that contained TTR was dialyzed overnight against 10 mM sodium phosphate buffer, pH 7.5, 100 mM KCl, 1 mM EDTA. The same volume of 200 mM sodium acetate buffer (pH 4.4, 100 mM KCl, 1 mM EDTA) was added to achieve a final pH of 4.5, and the mixture was then incubated for 18 hours at 37° C. Following centrifugation (45 min, 30,000×g, 4° C.), the supernatant was gel filtrated (Superdex 75) to elute phosphate buffer.
To develop nanoparticles with siRNA, we used cholesterol, distearoyl-sn-glycerol-3-phosphocholine (DSPC) and PEG2000-DMG (all Sigma). Nanoparticles were prepared by dissolving the 306013 lipidoid, cholesterol, DSPC, and PEG2000-DMG with final molar ratio of 50:38.5:10:1.5 in a 90% ethanol enriched with 10% 10 nM sodium citrate. Particles were formed following vortexing of equal volumes of siRNA solution with the lipid solution and subsequent dilution in PBS. Mice were orally gavaged with nanoparticles loaded with siRNA at a dose of 5 mg/kg.
The EcVac vaccine consisted of conjugates containing the 0-antigens of serotypes 06 of E. coli VT-55. […] The suspension for iv administration was made in TBS, (pH 7.4; 25 mmol Tris, 137 mmol NaCl, 2.8 mmol KCl).
Balb/c mice were immunized (10 μg) intraperitoneally and boosted (1 μg) subcutaneously with the E. coli amyloid isolated as previously described. Splenocytes were removed under sterile conditions, washed and hybridized to murine plasmacytoma parent cell line SP2/OAg14 using 40% polyethylene glycol and a spleen cell to plasmacytoma cell ratio of 5:1. Cells were plated in 96-well microtiter (Sarstedt) plates at 100,000 cells/per well with DMEM supplemented with 10% fetal bovine serum. Following 48h, cells were supplemented with hypoxanthine (100 PM) containing medium. After three washes with PBS-1% BSA, the presence of specific antibody binding was detected by ELISA. Serotype specific wells were cloned. Pristine-primed BALB/c mice were IP injected with 1×10^7 hybridoma cells. Ascites fluid was collected 14 days later, centrifuged (5000 g, 20 min, Eppendorf) and stored at −80° C. before use.

E. coli biofilm = test: Release of bacterial amyloid from E. coli biofilm after prophage induction (Congo Red absorbance of supernatant); format: cell-based, Escherichia coli; settings: for Congo Red absorbance of biofilm supernatant (release of bacterial amyloid): 10h following prophage induction
Description: Next, the effect of prophage induction on E. coli biofilm to amyloid release was evaluated. The amount of amyloid fibers in the biofilm supernatant was determined following prophage induction. Biofilm supernatant was collected and centrifuged at 5000 rpm (Eppendorf 5113) to sediment cells. Supernatant was filtered with […] and heated to eliminate contaminating proteins by incubating in a boiling water bath for 10 minutes, under the assumption that the aggregated β-sheet amyloid is heat resistant. To quantify the amount of aggregated amyloid, its binding to the amyloid diagnostic dye Congo Red (CR) was evaluated (Table 12). CR added to a final concentration of 10 μg/mL at pH 4.5 was tested using a BioRad UV/Vis spectrophotometer at 25° C. After 5 minutes of equilibration, the absorbance spectra were recorded from 400 to 600 nm. Each trace represents the average of 3 accumulated spectra.
Next, the inventors evaluated the effect of prophage induction on the amount of amyloid fibers released into the biofilm supernatant. Supernatant CR depletion assays were performed as follows. The amount of bacterial amyloid following prophage induction was measured in the supernatant of E. coli MG1655 biofilms. Biofilms were obtained as described above. Biofilm supernatant was taken at 4, 6, 8, and 10 h following prophage induction. To isolate aggregated amyloid fibers from the supernatant, the supernatant was centrifuged at 10,000×g, filtered through a 0.22 μm filter to separate bacterial cells, and treated with proteinase K to eliminate contaminating proteins. CR (Sigma-Aldrich) was added to a final concentration of 10 μg/ml from a filtered stock solution of 1 mg/ml (Reichhardt et al., 2015). After 5 min of equilibration, absorbance spectra were recorded from 400 to 600 nm (SmartSpec 3000, Bio-Rad). Each trace represents the average of 5 accumulated spectra. For all samples, spectra of corresponding nutrient MHB solutions with CR were used as blanks.
To quantify the amount of aggregated amyloid, its binding to the amyloid-diagnostic dye was evaluated by a Congo red (CR) assay (Reichhardt et al., 2015). A significant increase in CR absorbance was observed upon binding to supernatant 8 h following prophage induction as compared with control samples (FIG. 7). Like for other curli fibers, […] of the E. coli supernatant induced a spectral shift of the CR solution, with a maximum difference in absorbance between CR alone and CR bound to amyloid fibers at ˜541 nm (Chapman et al., 2002).

[2] = test system: MG1655 wild-type lysogenic strain (bacteriophage λ) biofilm; test: Prophage induction with mitomycin C in E. coli biofilm: PFU numbers (phage plaque assay); format: cell-based, Escherichia coli; settings: for PFU numbers: prophage induction with 1 μg/ml mitomycin C, 48h biofilm; for PFU: Table 17, prophage induction with mitomycin C, 48-h biofilm
Description: (§1) We used 48h old E. coli biofilms formed by amyloid-producing E. coli VT-55. Bacteriophages λ (from our collection) were employed. E. coli lysogenic strains were obtained by infection of host bacteria with phage. Prophages were induced with 1 μg/ml mitomycin C (Sigma). To confirm lytic development of bacteriophage we measured an increase in the number of plaque forming units (PFU) and the reduction of bacterial colony-forming units CFU numbers, throughout the 4 h to 10 h period (Table 2). The PFU number in E. coli biofilm was determined by the production of plaques on control E. coli culture.
(§2) Next, the E. coli phage/E. coli bacterial cell ratio, which represents the “lytic potential” (FIG. 6) (Waller et al., 2014), was analyzed. E. coli strain MG1655 was used as a host for prophage induction experiments (Jensen 1993). Bacteria were subcultured from freezer stocks onto Mueller-Hinton agar plates (Oxoid) and incubated at 37° C. overnight. All subsequent liquid subcultures were derived from colonies isolated from these plates and were grown in Mueller-Hinton broth (Oxoid). Bacteriophage λ from the inventors' collection was employed. Bacteriophage suspensions were routinely stored in TM buffer (10 mM Tris-HCl, 10 mM MgSO4, pH 7.2) at 4° C. E. coli lysogenic strains were obtained by infection of E. coli MG1655 with the phage and titration of cells on Mueller-Hinton agar plates as previously described (Maniatis et al. 1989). For prophage induction, Mitomycin C (Sigma-Aldrich) was prepared in 0.1 M phosphate buffer (pH 7.2), filtered through a 0.22-μm-pore filter (Millipore Corp., Bedford, Mass.), and stored at 4° C. (Georgopoulos et al., 2002). A modified protocol according to Reyrolle et al. designed for prophage induction on 96-well plates was used (Reyrolle et al., 1982; McDonald et al., 2010). Twenty microliters of an overnight E. coli MG1655 culture, with an absorbance at 600 nm of 0.2, was dispensed in each well of a 96-well flat-bottom polystyrene tissue culture microtiter plate (Sarstedt, Numbrecht, Germany), after which 180 μl of MHB (Oxoid) was added. The plates were incubated at 37° C. for 48 h. Induction of prophages in the E. coli biofilms was provoked by the addition of mitomycin C (Sigma) to a final concentration 1 μg/ml to each well. The plates were further incubated at 37° C. and samples were taken at 4, 6, 8, and 10 h following prophage induction.
(§3) The inventors evaluated how the die-off of E. coli populations due to prophage induction could lead to amyloid release. The inventors used 48-h old E. coli biofilms with confirmed curli expression. Curli formation on 48-h colonies was visible with the naked eye on petri dishes (data not shown). Prophages were induced with mitomycin C. Lytic bacteriophage development was confirmed as an increase in plaque forming units (PFU) and a reduction in colony-forming units (CFU).
(§4) CFU and PFU were determined as follows. To estimate CFU, biofilms were thoroughly scraped (Tetz et al., 2009). Well contents were aspirated, placed in 1 ml of isotonic phosphate buffer (0.15 M, pH 7.2), and the total CFU number was determined by serial dilution and plating on Mueller-Hinton agar. The number of phage virions produced after induction was estimated by phage titration (using strain MG1655 as a host) and phage plaque assay. Following induction, at the indicated times 200-μl samples of biofilms were collected. Then, 30 μl of chloroform was added to each sample, the mixture was vortexed and centrifuged at 3000×g for 5 min in a microcentrifuge (Eppendorf 5415D). A supernatant fraction of the bacterial lysate was further used. The phage titer (number of phages per ml) was determined using the double agar overlay assay method as described previously (Yuan et al., 2012). To this end, 2.5 μl of each titration point of phage lysate was spotted on Mueller-Hinton agar (Oxoid). […]

[3] = test system: MG1655 wild-type lysogenic strain biofilm; test: Prophage induction with mitomycin C in E. coli biofilm: CFU numbers; format: cell-based, Escherichia coli; settings: for CFU numbers: prophage induction with 1 μg/ml mitomycin C, 48h biofilm; for CFU: Table 17, prophage induction with mitomycin C, 48-h biofilm
Description: as §1, §2, §3, §4

[4] = 48-h old E. coli biofilms, mitomycin C 1 μg/ml

Question: How did the “Median T1D incidence 50% (weeks)” value [1] turn out when `O=C(O)C1CSC2=C(C3CC3)C(Cc3cccc4ccccc34)CC(=O)N21` (stereo not drawn) [8-cyclopropyl-7-(1-naphthylmethyl)-5-oxo-2,3,6,7-tetrahydro-5H-[1,3]thiazolo[3,2-a]pyridine-3-carboxylic acid] was run?
Answer: 21 weeks

Question: Which “Median T1D incidence 50% (weeks)” value [1] does the source give for `C[C@H]1c2cccc(O)c2C(=O)C2=C(O)[C@]3(O)C(=O)C(C(N)=O)=C(O)[C@@H](N(C)C)[C@@H]3[C@@H](O)[C@@H]21` [Doxycycline, reference compound] here?
Answer: 25 weeks

Question: Which results are given for `CO[C@@]12[C@H](COC(N)=O)C3=C(C(=O)C(C)=C(N)C3=O)N1C[C@@H]1N[C@@H]12` [Mytomicin C]?
Answer: Congo Red absorbance of biofilm supernatant (release of bacterial amyloid) (E. coli biofilm; wavelength 400 nm): 0; Congo Red absorbance of biofilm supernatant (release of bacterial amyloid) (E. coli biofilm; wavelength 450 nm): 0.156; Congo Red absorbance of biofilm supernatant (release of bacterial amyloid) (E. coli biofilm; wavelength 500 nm): 0.338; Congo Red absorbance of biofilm supernatant (release of bacterial amyloid) (E. coli biofilm; wavelength 541 nm): 0.421; Congo Red absorbance of biofilm supernatant (release of bacterial amyloid) (E. coli biofilm; wavelength 550 nm): 0.345; Congo Red absorbance of biofilm supernatant (release of bacterial amyloid) (E. coli biofilm; wavelength 600 nm): 0.015; PFU numbers ([2]; 4 h): 2.3log10 +/− log10 PFU/ml; PFU numbers ([2]; 6 h): 9.3log10 +/− log10 PFU/ml; PFU numbers ([2]; 8 h): 10.4log10 +/− log10 PFU/ml; PFU numbers ([2]; 10 h): 11.2log10 +/− log10 PFU/ml; CFU numbers ([3]; 4 h): 8.8log10 +/− log10 CFU/ml; CFU numbers ([3]; 6 h): 8.2log10 +/− log10 CFU/ml; CFU numbers ([3]; 8 h): 7.6log10 +/− log10 CFU/ml; CFU numbers ([3]; 10 h): 7.4log10 +/− log10 CFU/ml

Question: Which results are given for `CO[C@@]12[C@H](COC(N)=O)C3=C(C(=O)C(C)=C(N)C3=O)N1C[C@@H]1N[C@@H]12` [mitomycin C, reference compound]?
Answer: Amyloid release from preformed E. coli biofilms after prophage activation (in words) (E. coli biofilm; in vitro, mitomycin C 1 μg/ml, 48 h biofilms): pronounced amyloid release; Plaque forming units (PFU) after prophage induction (in words) [2, 4]: increase; Colony-forming units (CFU) after prophage induction (in words) [3, 4]: reduction

Question: How did the PFU ([2]; 4 h) turn out when `CO[C@@]12[C@H](COC(N)=O)C3=C(C(=O)C(C)=C(N)C3=O)N1C[C@@H]1N[C@@H]12` [mytomicin C] was run?
Answer: 2.3 log10 PFU/ml

Question: And the PFU ([2]; 6 h)?
Answer: 9.3 log10 PFU/ml

Question: What about the PFU ([2]; 8 h) of the same molecule?
Answer: 10.4 log10 PFU/ml

Question: And the PFU ([2]; 10 h)?
Answer: 11.2 log10 PFU/ml

Question: What about the CFU ([3]; 4 h) of the same molecule?
Answer: 8.8 log10 CFU/ml

Question: And the CFU ([3]; 6 h)?
Answer: 8.2 log10 CFU/ml

Question: And the CFU ([3]; 8 h)?
Answer: 7.6 log10 CFU/ml

Question: What about the CFU ([3]; 10 h) of the same molecule?
Answer: 7.4 log10 CFU/ml

Question: `CCCCCCCO[C@H]1O[C@H](CO)[C@@H](O)[C@H](O)[C@@H]1O` [n-Heptyl α-D-mannose, reference compound] was tested. Which “Median T1D incidence 50% (weeks)” value [1] did it give?
Answer: 22 weeks

Question: How did the “Median T1D incidence 50% (weeks)” value [1] turn out when “GGVLVQPG [Larazotide, Glycylglycyl-L-valyl-L-leucyl-L-valyl-L-glutaminyl-L-prolyl-glycine, reference compound]” was run?
Answer: 24 weeks

Question: How did the “Median T1D incidence 50% (weeks)” value [1] turn out when “Transthyretin: mouse Transthyretin expressed in E. coli VT-243” was run?
Answer: 24 weeks
